The results in this text go back to patent publication US20010049393A1, “Methods for defining MYC target genes and uses thereof” (Whitehead Institute for Biomedical Research, priority 1999, published 2001).

In experiment [1] the test system is MYC-ER. Put plainly: Northern blot of p21 transcript after OHT stimulation of MYC-ER. It is filed as cell-based, human. The following applies: within two hours after OHT stimulation, MYC-ER fibroblasts. Here is the method:
(§1) Amphotropic viral stocks were generated by co-transfection of pBabe-puro plasmid containing MYC-ER™ or Δ-MYC-ER™ (Littlewood, T. et al., 1995. Nucl. Acids Res. 23:1686-1690) together with Psi^−helper construct (Muller, A. et al., 1991. Mol. Cell. Biol. 11:1785-1792) in 293T cells. Subconfluent WI38 cells (ATCC cat #CCL75) grown in DMEM with 10% FCS were infected with 5 mL of viral supernatant on two consecutive days. The next day, cells were plated at ˜10^4cells/cm^2 in phenol-red free DME medium with 10% FCS, and selected in the presence of puromycin for pBABE vectors. Cells were grown to confluence, for seven to eight days, without media changes. Density arrested cells were induced with 200 nM OHT (4-hydroxy-tamoxifen) or serum starved (0.1% FCS) for 48 hours and then induced. Where specified, cells were exposed to cycloheximide (10 micrograms/mL) for 30 minutes prior to addition of OHT.
Northern blots were performed according to standard procedures (Ausubel, F. et al., 1990. Current Protocols in Molecular Biology. Wiley Interscience, New York). For cyclin D2 and p21, complete cDNA was used as probes. For FKBP52, a PCR amplicon of bps 1215-1767 (accession number M88279) was used; for FABP5 (PA-FA-BP), bps 60-481 (M94856); for ODC1, bps 1198-1984 (X55362); for PPIF (hCyP3), bps 404-803 (M80254); and for EIF5A, bps 46-512 (U17969). […]

Experiment [2] relates to MYC-ER. Put plainly: Cell cycle (S phase) entry after OHT treatment of MYC-ER transduced human fibroblasts. Type of experiment: cell-based. The protocol:
as §1
Treatment of the transduced cells with OHT, caused 20% of the cells to enter the cell cycle by 17 hours. In contrast, only 1-6% of, OHT-treated, non-MYC-ER expressing controls ever enter S phase. […]

As for 4-hydroxytamoxifen [OHT], the “levels of p21” value in the experiment on MYC-ER [1] is “decreased”. For the same substance, the “cells entering the cell cycle” value in the experiment on MYC-ER [2] (MYC-ER transduced fibroblasts, by 17 hours after OHT) worked out at 20%. The “cells entering S phase” value in the experiment with MYC-ER [2] (OHT-treated, non-MYC-ER expressing controls) is given as 1-6%.
